Experiments:
rat [1] = details: Sub-acute repeat dose toxicity, sprague dawley, Oral, Gavage/Intubation, dose end: 10 day, group: systemic
rat [2] = details: Subchronic oral toxicity in rodents, sprague dawley, Gavage/Intubation, dose end: 90 day, group: systemic
rabbit [3] = details: Prenatal developmental toxicity study, other, Oral, Gavage/Intubation, dose end: 18 GD
rat [4] = details: Multigenerational reproductive toxicity study, other, Oral, Feed, dose end: 2 generation
rat [5] = details: Prenatal developmental toxicity study, Crl: CD BR, Oral, Gavage/Intubation, dose end: 15 GD
rabbit [6] = details: Prenatal developmental toxicity study, new zealand white, Oral, Gavage/Intubation, dose end: 18 GD
rat [7] = details: Subchronic oral toxicity in rodents, wistar, Feed, dose end: 3 month, group: systemic, systemic / organ weight / liver / nos
rat [8] = details: Chronic toxicity, wistar, Oral, Feed, dose end: 105 week, group: systemic
mouse = details: Carcinogenicity, cd1, Oral, Feed, dose end: 24 month, group: systemic
dog = details: Chronic toxicity, beagle, Oral, Feed, dose end: 104 week, group: systemic
[9] = systemic / clinical chemistry / cholesterol / cholesterol + systemic / in life observation / body weight / body weight + systemic / organ …
[10] = systemic / clinical chemistry / alkaline phosphatase (alp/alk) / alkaline phosphatase (alp/alk) + systemic / clinical chemistry / calcium / …
[11] = systemic / pathology microscopic / liver / inflammation + systemic / clinical chemistry / aspartate aminotransferase (ast/sgot) / aspartate …
[12] = group: developmental, developmental / developmental malformation / bone / [other]
[13] = group: maternal, systemic / in life observation / body weight / body weight gain
[14] = group: maternal, systemic / in life observation / body weight / body weight gain + systemic / in life observation / food consumption / food consumption
[15] = group: offspring, systemic / in life observation / body weight / offspring (pup) weight
[16] = group: parental, systemic / in life observation / body weight / body weight gain + systemic / clinical chemistry / gamma glutamyl transferase (ggt) / gamma …
[17] = group: parental, systemic / in life observation / body weight / body weight gain + systemic / in life observation / food consumption / food consumption + …
[18] = group: developmental, developmental / developmental malformation / bone / incomplete ossification
[19] = group: developmental, developmental / developmental malformation / bone / incomplete ossification + systemic / in life observation / body weight / fetal weight + …
[20] = group: maternal, systemic / in life observation / body weight / body weight gain + systemic / in life observation / food consumption / food consumption + …
[21] = group: developmental, systemic / in life observation / body weight / fetal weight
[22] = group: maternal, reproductive / reproductive performance / reproductive performance other / runts
[23] = systemic / in life observation / body weight / body weight gain + systemic / organ weight / kidney / absolute + systemic / organ weight / …
[24] = systemic / organ weight / liver / relative to body weight
[25] = systemic / organ weight / kidney / relative to body weight + systemic / organ weight / pancreas / relative to body weight + systemic / organ…

Compound: Clc1cccc(Cl)c1 [1,3-Dichlorobenzene]
- NEL (rat [1]; systemic / clinical chemistry / cholesterol / cholesterol + systemic / in life observation / body weight / body weight + systemic / in life …): 37 mg/kg/day
- LOAEL (rat [1]; [9]): > 735 mg/kg/day
- NOAEL (rat [1]; [9]): ≥ 735 mg/kg/day
- LEL (rat [1]; systemic / organ weight / liver / nos + systemic / pathology microscopic / liver / necrosis): 147 mg/kg/day
- LOAEL (rat [2]; [10]): > 588 mg/kg/day
- NOAEL (rat [2]; [10]): ≥ 588 mg/kg/day
- LEL (rat [2]; [11]): 9 mg/kg/day
- NEL (rat [2]; [11]): < 9 mg/kg/day

Compound: CSc1nnc(C(C)(C)C)c(=O)n1N [Metribuzin]
- LEL (rabbit [3]; [12]): 85 mg/kg/day
- LOAEL (rabbit [3]; [12]): 85 mg/kg/day
- NEL (rabbit [3]; [12]): 30 mg/kg/day
- NOAEL (rabbit [3]; [12]): 30 mg/kg/day
- LEL (rabbit [3]; [13]): 30 mg/kg/day
- LOAEL (rabbit [3]; [13]): 30 mg/kg/day
- NEL (rabbit [3]; [14]): 10 mg/kg/day
- NOAEL (rabbit [3]; [14]): 10 mg/kg/day
- LEL (rat [4]; [15]): 7.5 mg/kg/day
- LOAEL (rat [4]; [15]): 7.5 mg/kg/day
- NEL (rat [4]; [15]): 1.5 mg/kg/day
- NOAEL (rat [4]; [15]): 1.5 mg/kg/day
- LEL (rat [4]; [16]): 7.5 mg/kg/day
- LOAEL (rat [4]; [16]): 7.5 mg/kg/day
- NEL (rat [4]; [17]): 1.5 mg/kg/day
- NOAEL (rat [4]; [17]): 1.5 mg/kg/day
- LEL (rat [5]; [18]): 25 mg/kg/day
- NEL (rat [5]; [18]): < 25 mg/kg/day
- LOAEL (rat [5]; [19]): 200 mg/kg/day
- NOAEL (rat [5]; [19]): 70 mg/kg/day
- LEL (rat [5]; [20]): 25 mg/kg/day
- LOAEL (rat [5]; [20]): > 200 mg/kg/day
- NEL (rat [5]; [20]): < 25 mg/kg/day
- NOAEL (rat [5]; [20]): ≥ 200 mg/kg/day
- LEL (rabbit [6]; [21]): 45 mg/kg/day
- LOAEL (rabbit [6]; [21]): 45 mg/kg/day
- NEL (rabbit [6]; [21]): 15 mg/kg/day
- NOAEL (rabbit [6]; [21]): 15 mg/kg/day
- LOAEL (rabbit [6]; group: maternal, reproductive / reproductive performance / aborted / aborted + systemic / in life observation / body weight / body weight): 135 mg/kg/day
- NOAEL (rabbit [6]; group: maternal, reproductive / reproductive performance / aborted / aborted + systemic / in life observation / body weight / body weight + reproductive / …): 45 mg/kg/day
- LEL (rabbit [6]; [22]): 45 mg/kg/day
- NEL (rabbit [6]; [22]): 15 mg/kg/day
- LEL (rat [7]): 3 mg/kg/day
- LOAEL (rat [7]): 3 mg/kg/day
- NEL (rat [7]): 1.25 mg/kg/day
- NOAEL (rat [7]): 1.25 mg/kg/day
- LOAEL (rat [8]; systemic / in life observation / body weight / body weight gain): 14.4 mg/kg/day
- NEL (rat [8]; [23]): 1.3 mg/kg/day
- NOAEL (rat [8]; [23]): 5.27 mg/kg/day
- LEL (rat [8]; systemic / organ weight / lung / relative to body weight): 1.87 mg/kg/day
- LOAEL (mouse; systemic / hematology / hematocrit (hct) / hematocrit (hct) + systemic / hematology / hemoglobin (hgb) / hemoglobin (hgb)): 567 mg/kg/day
- NOAEL (mouse; systemic / hematology / hematocrit (hct) / hematocrit (hct) + systemic / hematology / hemoglobin (hgb) / hemoglobin (hgb) + systemic / organ…): 139 mg/kg/day
- LEL (mouse; [24]): 35 mg/kg/day
- NEL (mouse; [24]): < 35 mg/kg/day
- LOAEL (dog; systemic / clinical chemistry / cholesterol / cholesterol + systemic / hematology / blood clotting / blood clotting - prothrombin time + …): 37.5 mg/kg/day
- LEL (dog; [25]): 0.625 mg/kg/day
- NEL (dog; [25]): < 0.625 mg/kg/day
- NOAEL (dog; systemic / organ weight / kidney / relative to body weight + systemic / organ weight / pancreas / relative to body weight + systemic / …): 2.5 mg/kg/day

— EPA's ToxRefDB 2
